The numbers were not newly measured in patent US11759418B1, “Composition for treating wounds, dermatitis, inflammation, and irritation” (Chrism Products, Inc., priority 2016, dated 2023), which cites them from elsewhere.

The conditions of data set [1]: chemically synthesized bulk allantoin.
The subject of the next data set is wound healing process. To be noted: results from histological analyses.

Where two headings read alike, the source gives them in different places.

Consider `NC(=O)NC1NC(=O)NC1=O` (stereo not shown) [Allantoin, 5-ureidohydantoin], for which the Concentration result was “ca 0.8%” (5% Glycerin in water, 20° C.); “ca. 0.3%” (50% Isopropanol in water, 25° C.); “ca. 0.1%” (Ethanol, 20° C.); “ca. 0.3%” (Propylene glycol, 25° C.); “ca. 0.4%” (Water, 20° C.); “ca. 4.0%” (Water, 75° C.). Besides, the safety / toxicity entry in data set [1] is given as “safe, non-toxic”. For the same molecule, the “effect on wound healing process” value in the data set with wound healing process is reported as “benefits the wound healing process”.

Turning to “benzyl-dimethyl-tridecylazanium [Benzalkonium Chloride]”, in the data set with skin (clinical studies, dermal use), the “concentration producing mild skin irritation” value is reported as ≥ 5%. Besides, in the data set with skin (in vivo), the “concentration safe for dermal use” value is listed as “up to 0.5%”.
